Results on five compounds are retold here after ChEMBL document CHEMBL1140389, “Synthesis and biological activity of macrocyclic inhibitors of hepatitis C virus (HCV) NS3 protease” (Bioorg Med Chem Lett, 2005).

The target in this experiment is NS3 (Hepatitis C virus, UniProt A3EZJ3). The experiment in a line: Inhibitory constant against NS3 serine protease of hepatitis c virus. Also on record: species or system Hepacivirus hominis.

Starred links: 1 amine or outer side, 2 acyl side, 3 side chain; linkers in the order of their positions; H or OH if unused. Positions of bridges follow the written chain, without caps; N, C: chain ends. Non-standard residues stand in square brackets, D forms with d. Residues, ends and D or L forms follow the SMILES beside them. *: point of attachment. Phe(3-(CH2)7CO) = O=C([C@H](Cc1cccc(CCCCCCCC(=O)[*:3])c1)N[*:1])[*:2]; X1 = CCCC(N[*:1])C(=O)C(=O)[*:2]; Chg = N[C@H](C(=O)O)C1CCCCC1; Phg = N[C@H](C(=O)O)c1ccccc1; OtBu = CC(C)(C)O*

NS3, sequence (A3EZJ3 whole entry): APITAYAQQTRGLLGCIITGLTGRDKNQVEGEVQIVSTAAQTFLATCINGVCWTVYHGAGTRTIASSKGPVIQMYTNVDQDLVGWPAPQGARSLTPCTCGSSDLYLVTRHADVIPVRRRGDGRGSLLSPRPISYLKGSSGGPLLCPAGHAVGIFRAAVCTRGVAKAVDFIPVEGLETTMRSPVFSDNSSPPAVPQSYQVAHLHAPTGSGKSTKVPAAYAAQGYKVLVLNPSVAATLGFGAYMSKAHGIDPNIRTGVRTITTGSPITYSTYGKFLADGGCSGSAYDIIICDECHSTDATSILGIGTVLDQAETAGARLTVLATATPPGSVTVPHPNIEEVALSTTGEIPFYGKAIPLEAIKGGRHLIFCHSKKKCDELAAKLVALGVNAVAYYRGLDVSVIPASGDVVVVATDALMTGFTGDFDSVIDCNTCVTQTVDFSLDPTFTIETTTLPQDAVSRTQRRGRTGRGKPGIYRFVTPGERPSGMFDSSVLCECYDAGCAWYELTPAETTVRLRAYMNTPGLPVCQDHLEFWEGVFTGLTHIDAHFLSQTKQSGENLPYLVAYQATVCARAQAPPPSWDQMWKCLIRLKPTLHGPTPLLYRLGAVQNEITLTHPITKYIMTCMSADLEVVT

Take `CCCC(NC(=O)[C@@H]1Cc2cccc(c2)CCCCCCCC(=O)N[C@@H](C2CCCCC2)C(=O)N1)C(=O)C(=O)NCC(=O)N[C@H](C(=O)N(C)C)c1ccccc1` (stereo not given in full) ([Chg][Phe(3-(CH2)7CO)][X1]G[Phg]-NMe2; lactam N-2): the affinity, expressed as Ki, was 0.11 µM.
In the case of `CCCC(NC(=O)[C@@H]1Cc2cccc(c2)/C=C/CCCCCC(=O)N[C@@H](C2CCCCC2)C(=O)N1)C(=O)C(=O)NCC(=O)N[C@H](C(=O)OC(C)(C)C)c1ccccc1` (stereo not given in full) it was 1.2 µM; in that of `CCCC(NC(=O)[C@@H]1Cc2cccc(c2)/C=C/CCCCCC(=O)N[C@@H](C2CCCCC2)C(=O)N1)C(=O)C(=O)NCC(=O)N[C@H](C(=O)N(C)C)c1ccccc1` (stereo not given in full), 0.12 µM.
Next, `CCCC(NC(=O)[C@@H]1Cc2cccc(c2)/C=C/CCCCCC(=O)N[C@@H](C2CCCCC2)C(=O)N1)C(=O)C(=O)NCC(=O)N[C@H](C(=O)O)c1ccccc1` (stereo not given in full): 0.084 µM.
In the case of `CCCC(NC(=O)[C@@H]1Cc2cccc(c2)CCCCCCCC(=O)N[C@@H](C2CCCCC2)C(=O)N1)C(=O)C(=O)NCC(=O)N[C@H](C(=O)OC(C)(C)C)c1ccccc1` (stereo not given in full) ([Chg][Phe(3-(CH2)7CO)][X1]G[Phg]-OtBu; lactam N-2) it was 2.3 µM.

One may read the Ki as a measure of affinity in units of concentration, obtained from inhibition or displacement. Read a low Ki as a stronger hold on the target.
